These results are taken from ChEMBL document CHEMBL4270481, “ALK5 kinase inhibitory activity and synthesis of 2,3,4-substituted 5,5-dimethyl-5,6-dihydro-4H-pyrrolo[1,2-b]pyrazoles” (Eur J Med Chem, 2017).

Experiment [1] concerns the target Aurora kinase B (Homo sapiens) (UniProt Q96GD4). Put plainly: Inhibition of Aurora B (unknown origin) assessed as residual enzyme activity at 1 uM relative to untreated control.
Experiment [2] has as its target Ribosomal protein S6 kinase beta-1 (Homo sapiens) (UniProt P23443). Briefly: Inhibition of S6K1 (unknown origin) assessed as residual enzyme activity at 1 uM relative to untreated control.

Sequence of Aurora kinase B (Homo sapiens) (Q96GD4 whole entry): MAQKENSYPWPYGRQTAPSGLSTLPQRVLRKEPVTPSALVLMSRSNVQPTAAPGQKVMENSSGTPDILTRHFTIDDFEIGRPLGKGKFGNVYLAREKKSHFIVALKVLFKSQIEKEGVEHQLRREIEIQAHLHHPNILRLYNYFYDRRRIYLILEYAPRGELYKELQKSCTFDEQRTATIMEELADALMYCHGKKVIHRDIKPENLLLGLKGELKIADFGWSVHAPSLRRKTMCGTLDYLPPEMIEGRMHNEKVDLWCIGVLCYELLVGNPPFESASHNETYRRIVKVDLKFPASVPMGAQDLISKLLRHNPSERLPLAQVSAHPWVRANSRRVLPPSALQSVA
Sequence of Ribosomal protein S6 kinase beta-1 (Homo sapiens) (P23443 whole entry, looked up): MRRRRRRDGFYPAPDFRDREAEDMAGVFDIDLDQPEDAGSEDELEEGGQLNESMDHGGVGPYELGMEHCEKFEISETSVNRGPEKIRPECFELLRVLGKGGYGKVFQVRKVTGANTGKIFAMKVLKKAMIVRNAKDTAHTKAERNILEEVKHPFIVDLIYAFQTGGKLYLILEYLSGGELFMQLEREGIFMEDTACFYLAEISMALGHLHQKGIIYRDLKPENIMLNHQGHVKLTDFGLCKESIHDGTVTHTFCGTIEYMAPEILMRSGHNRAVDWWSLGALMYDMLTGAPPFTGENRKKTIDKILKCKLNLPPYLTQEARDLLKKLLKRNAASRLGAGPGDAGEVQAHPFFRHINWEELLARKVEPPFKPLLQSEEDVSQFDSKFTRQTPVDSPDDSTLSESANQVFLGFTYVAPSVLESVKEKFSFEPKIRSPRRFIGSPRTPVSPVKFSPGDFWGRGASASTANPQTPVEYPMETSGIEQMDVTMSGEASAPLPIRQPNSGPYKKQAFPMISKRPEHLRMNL

Take `Cc1cccc(-c2nn3c(c2-c2ccc(O)cc2)C(C)C(C)(C)C3)n1` (configuration not stated): the Activity in experiment [1] and in experiment [2] was over 80% each time.
